Results on 15 compounds are retold here after ChEMBL document CHEMBL1142322, “Synthesis and biological evaluation of novel 8-aminomethylated oroxylin A analogues as alpha-glucosidase inhibitors” (Bioorg Med Chem Lett, 2008).

Activity calls are given as the source filed them. No cut-off for these calls is given here.

The species entered for one assay is Rattus norvegicus. Briefly: (§1) Inhibition of rat intestinal alpha-glucosidase.
A further assay concerns Saccharomyces cerevisiae. As to the kind of experiment: (§2) Inhibition of yeast alpha-glucosidase.
Assay [1] in a line: as §1.
Assay [2] in a line: as §2. Further details: species or system Saccharomyces cerevisiae.
Assay [3] addresses Sucrase-isomaltase, intestinal (Homo sapiens, UniProt P14410). Briefly: Inhibition of sucrase.

One may read the IC50 as the point on the concentration scale where inhibition reaches its midpoint.

Sucrase-isomaltase, intestinal, sequence (P14410 2-1007 limits assumed): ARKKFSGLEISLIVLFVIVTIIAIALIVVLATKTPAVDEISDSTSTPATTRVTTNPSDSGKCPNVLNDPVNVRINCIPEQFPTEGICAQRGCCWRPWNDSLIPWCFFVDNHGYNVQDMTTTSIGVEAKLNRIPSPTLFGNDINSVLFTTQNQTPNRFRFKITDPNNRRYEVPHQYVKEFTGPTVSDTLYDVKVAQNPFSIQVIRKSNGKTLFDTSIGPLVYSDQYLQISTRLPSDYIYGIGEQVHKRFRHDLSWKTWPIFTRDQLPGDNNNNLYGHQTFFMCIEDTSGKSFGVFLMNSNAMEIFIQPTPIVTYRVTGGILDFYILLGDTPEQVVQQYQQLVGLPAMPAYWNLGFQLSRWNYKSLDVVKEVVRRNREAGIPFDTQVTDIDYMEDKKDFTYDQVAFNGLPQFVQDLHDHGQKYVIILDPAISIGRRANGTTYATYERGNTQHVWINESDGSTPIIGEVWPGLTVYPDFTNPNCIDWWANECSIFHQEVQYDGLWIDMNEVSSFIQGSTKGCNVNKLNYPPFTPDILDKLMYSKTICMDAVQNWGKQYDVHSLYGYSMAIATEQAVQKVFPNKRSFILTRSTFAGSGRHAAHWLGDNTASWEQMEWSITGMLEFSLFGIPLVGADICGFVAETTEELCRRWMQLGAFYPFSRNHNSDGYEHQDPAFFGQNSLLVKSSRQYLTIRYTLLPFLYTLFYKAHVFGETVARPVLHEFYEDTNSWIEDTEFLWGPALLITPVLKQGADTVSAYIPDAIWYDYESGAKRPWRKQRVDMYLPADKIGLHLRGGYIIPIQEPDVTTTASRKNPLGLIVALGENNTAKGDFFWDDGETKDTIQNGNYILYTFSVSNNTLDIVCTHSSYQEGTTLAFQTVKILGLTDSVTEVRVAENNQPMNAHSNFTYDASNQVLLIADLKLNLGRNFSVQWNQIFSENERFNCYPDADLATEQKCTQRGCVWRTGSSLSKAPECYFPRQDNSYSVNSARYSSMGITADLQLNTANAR
Sucrase-isomaltase, intestinal, sequence (P14410 1008-1827 limits assumed): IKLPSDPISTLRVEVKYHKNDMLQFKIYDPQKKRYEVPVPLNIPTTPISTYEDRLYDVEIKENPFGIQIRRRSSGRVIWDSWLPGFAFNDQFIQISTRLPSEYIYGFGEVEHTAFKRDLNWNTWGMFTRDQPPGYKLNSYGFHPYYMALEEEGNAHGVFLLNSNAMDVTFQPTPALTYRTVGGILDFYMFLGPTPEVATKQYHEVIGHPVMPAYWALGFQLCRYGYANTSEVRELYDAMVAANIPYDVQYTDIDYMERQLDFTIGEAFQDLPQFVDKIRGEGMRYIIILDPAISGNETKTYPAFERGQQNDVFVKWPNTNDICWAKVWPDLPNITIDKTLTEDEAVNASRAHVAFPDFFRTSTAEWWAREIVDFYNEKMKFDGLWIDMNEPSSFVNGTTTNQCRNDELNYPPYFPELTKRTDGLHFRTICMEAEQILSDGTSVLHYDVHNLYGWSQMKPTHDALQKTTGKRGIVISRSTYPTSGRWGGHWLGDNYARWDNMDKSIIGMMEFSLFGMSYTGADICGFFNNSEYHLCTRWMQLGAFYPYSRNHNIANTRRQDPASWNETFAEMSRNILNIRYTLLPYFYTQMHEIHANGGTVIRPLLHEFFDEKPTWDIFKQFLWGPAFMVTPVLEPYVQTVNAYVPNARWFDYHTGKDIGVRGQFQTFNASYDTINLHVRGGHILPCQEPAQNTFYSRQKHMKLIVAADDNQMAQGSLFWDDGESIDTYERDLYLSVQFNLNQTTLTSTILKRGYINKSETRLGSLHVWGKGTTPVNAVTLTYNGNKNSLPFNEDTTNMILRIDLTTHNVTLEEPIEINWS

As for `COc1c(O)c(CNCc2ccccc2)c2oc(-c3ccccc3)cc(=O)c2c1O`, the outcome in the assay filed under Rattus norvegicus and with Saccharomyces cerevisiae was inactive.
Regarding `COc1c(O)c(CN(c2ccccc2)c2ccccc2)c2oc(-c3ccccc3)cc(=O)c2c1O`, the outcome in the assay filed under Rattus norvegicus and in the assay on Saccharomyces cerevisiae was inactive.
For `C[C@H]1O[C@H](O[C@H]2[C@H](O)[C@@H](O)[C@@H](O[C@H]3[C@H](O)[C@@H](O)C(O)O[C@@H]3CO)O[C@@H]2CO)[C@H](O)[C@@H](O)[C@@H]1N[C@H]1C=C(CO)[C@@H](O)[C@H](O)[C@H]1O` (some centres undefined) [ACARBOSE], the IC50 in assay [1] is 6.38 µM.
On to `O=c1cc(-c2ccccc2)oc2cc(O)cc(O)c12` [CHRYSIN], for which the IC50 in assay [1] is 376 µM; in assay [2] it was 371 µM.
For the compound `COc1c(O)c(CN(C)Cc2ccco2)c2oc(-c3ccccc3)cc(=O)c2c1O`, the outcome in the assay listed under Rattus norvegicus and in the assay with Saccharomyces cerevisiae was inactive.
On to `CCCCNCc1c(O)c(OC)c(O)c2c(=O)cc(-c3ccccc3)oc12`, for which the outcome in the assay listed under Rattus norvegicus and in the assay on Saccharomyces cerevisiae was inactive.
As to `COc1c(O)c(CN(C)Cc2ccccc2)c2oc(-c3ccccc3)cc(=O)c2c1O`, the outcome in the assay filed under Rattus norvegicus and in the assay on Saccharomyces cerevisiae was inactive.
`O=c1cc(-c2ccccc2)oc2cc(O)c(O)c(O)c12` [BAICALEIN]: the IC50 in assay [1] was 215 µM; in assay [3], 52 µM; in assay [2] it was 203 µM.
In the case of `COc1c(O)c(CN2CCCCC2)c2oc(-c3ccccc3)cc(=O)c2c1O`, the IC50 in assay [1] came out at 50.7 µM; in assay [2] it was 167 µM.
Regarding `COc1c(O)cc2oc(-c3ccccc3)cc(=O)c2c1O` [OROXYLIN A], the values for the IC50 in assay [1] and in assay [2] were 135 µM and 124 µM, respectively.
In the same order, the values of `COc1c(O)c(CN2CCOCC2)c2oc(-c3ccccc3)cc(=O)c2c1O` are 76 µM and 150 µM.
Regarding `OC[C@H]1NC[C@H](O)[C@@H](O)[C@@H]1O` [DUVOGLUSTAT], the IC50 in assay [2] was found to be 49.3 µM.
In the case of `COc1c(O)c(CN2CCN(C(=O)OC(C)(C)C)CC2)c2oc(-c3ccccc3)cc(=O)c2c1O`, the IC50 in assay [1] turned out to be 75 µM; in assay [2], 84.4 µM.
In the same order, the values of `COc1c(O)c(CN2CCN(C)CC2)c2oc(-c3ccccc3)cc(=O)c2c1O` are 35.4 µM and 98.8 µM.
In the case of `COc1c(O)c(CN2CCCC2)c2oc(-c3ccccc3)cc(=O)c2c1O`, the outcome in the assay filed under Rattus norvegicus and in the assay on Saccharomyces cerevisiae was inactive.
